Where a name gives a salt, the structure may show the parent alone. Read-outs that look alike come from different tables or passages of the source.
How the values were obtained:
type II myosin = settings: enantiomer of blebbistatin; cited from earlier work
[1] = system: cultured monkey corneal endothelial cells; test: Examination of number of adhering cells with CellTiter-Glo; format: cell-based, cynomolgus monkey
[2] = system: myosin light chain (MLC) phosphorylation; test: Western blot of Rho-ROCK pathway activity (phospho myosin light chain); format: cell-based, cynomolgus monkey
Experimental: DMEM (Gibco-Invitrogen) to which Y-27632 was added such that the final concentration would be 10 μM and cultured monkey corneal endothelial cells were seeded. Over time, i.e., 0, 1, 3, and 24 hours thereafter, proteins extracted with RIPA buffer were subjected to electrophoresis with 7.5% polyacrylamide. DMEM (Gibco-Invitrogen) was used as a control. The separated protein was transcribed onto a PVDF membrane (PALL LIFE SCIENCE, catalog number: EH-2222). Blocking procedure was carried out by incubating a Tris buffered saline (10 mM Tris-HCl, pH 7.4, 100 mM NaCl) supplemented with 0.1% (vol/vol) polyethylene sorbitan monolaurate (Nacalai Tesque, catalog number: 28353-85) (TBS-T) and 5% non-fat dry milk (CELL SIGNALING, catalog number: 9999) and the blotted membrane for one hour. The membrane was then immersed in TBS-T supplemented with antibodies against Phospho Myosin Light Chain 2 (Thr18/Ser19) (CELL SIGNALING, catalog number: 3674), Phospho FAK (Y397) (D20B1) Rabbit mAb (CELL SIGNALING, catalog number: 8556), Phospho Paxillin (Tyr118) Antibody (CELL SIGNALING, catalog number: 2541), GAPDH (14C10) Rabbit mAb (CELL SIGNALING, catalog number: 2118) and diluted 1000-fold, and reacted for 1 hour at room temperature. […]

[3] = system: focal adhesion kinase (FAK) phosphorylation; format: cell-based, cynomolgus monkey
paxillin phosphorylation = test: Western blot of adhesion-related molecules (phospho paxillin); format: cell-based, cynomolgus monkey
[4] = system: rabbit bullous keratopathy model; test: Transplantation of cultured corneal endothelial cells in combination with inhibitor, injected into the anterior chamber; format: in vivo; settings: for state of the anterior ocular section after transplantation (pictures): day 3, day 7, day 14
Experimental: In primary culture of rabbit corneal endothelial cells, a Descemet's membrane including an endothelial cell layer was detached from a corneal tissue and 0.5 ml of Accutase (catalog number: AT104, Innovative Cell Technologies) was used for each eye, and incubated at 37° C. by using a water bath. After 20 minutes, a culture medium was added and pipetting was performed. The sample was centrifuged at 1200 rpm for 3 minutes to remove the supernatant. A culture medium was then added to a precipitated corneal endothelial cell mass for admixing. The entire amount was seeded on a 12-well plate coated with FNC Coating Mix (catalog No.: 0407; Athena Enzyme Systems, Baltimore, Md., USA). DMEM (catalog No.: 12320; Gibco-Invitrogen), to which 10% FBS, 1% Penicillin-Streptomycin Mixed Solution (catalog number: 26252-94; Nacalai Tesque), and 2 ng/ml basic fibroblast growth factor, catalog number: 13256-029; bFGF; Invitrogen) were added, was used as a culture medium.
A medium was exchanged every other day. Subculture was performed when 50 to 80% confluence was reached. With respect to the subculturing method, cells were washed with Ca^2+Mg^2+-free PBS (PBS−; Nissui Pharmaceutical Co., Ltd., Tokyo, Japan), and 0.05% Trypsin-EDTA (catalog No.: 25300-054; Invitrogen) was added and incubated at 37° C. for 3 minutes. Cells were detached and collected from the plate. After the cells were centrifuged at 1500 rpm for 3 minutes, a culture medium was added to make a cell suspension. Cells were seeded on a plate coated with FNC Coating Mix at a density of 1:2-3.
Rabbit corneal endothelial cells were detached with a soft tapered needle (Inami, M-563S) to make a bullous keratopathy model. Subsequently, 5.0×10^5 cultured rabbit corneal endothelial cells were suspended in 200 μl of Dulbecco's Modified Eagle Medium (DMEM) with blebbistatin adjusted to a final concentration of 10 μM. The suspension was injected into the anterior chamber and the corneal surface was maintained in a face-down position for three hours. A group injected with 5.0×10^5 rabbit corneal endothelial cells suspended into 200 μl of Dulbecco's Modified Eagle Medium (DMEM) with Y-27632 adjusted to a final concentration of 100 μM in the anterior chamber, a group subjected only to scraping off of corneal endothelial cells, and a group injected with 5.0×10^5 rabbit corneal endothelial cells suspended in a 200 μl of Dulbecco's Modified Eagle Medium (DMEM) into the anterior chamber were used as comparison groups.
A rabbit bullous keratopathy model eye with the corneal endothelium scraped off was injected with 5.0×10^5 cultured rabbit corneal endothelial cells suspended in 200 μl of Dulbecco's Modified Eagle Medium (DMEM) with blebbistatin adjusted to a final concentration of 1 μM and 3 μM into the anterior chamber as in Example 3. […]

[5] = system: skeletal muscle myosin II; settings: cited from earlier work
non-muscle myosin II = settings: cited from earlier work
actin polymerization = settings: cited from earlier work

SMILES: Cc1ccc2c(c1)C(=O)C1(O)CCN(c3ccccc3)C1=N2 (single isomer, unassigned; (+)) [(+) form]
- effect as myosin II-specific inhibitor (type II myosin): does not

SMILES: C[C@@H](N)[C@H]1CC[C@H](C(=O)Nc2ccncc2)CC1 [Y-27632, (R)-(+)-trans-(4-pyridyl)-4-(1-aminoethyl)-dihydrochloride cyclohexanecarboxamide monohydrate]
- number of adhering cells [1]: significantly increased
- MLC phosphorylation ([2]; Y-27632 10 μM, 0, 1, 3 and 24 hours): suppresses
- phosphorylation of FAK [3]: phosphorylated at an early stage
- phosphorylation of paxillin (paxillin phosphorylation): phosphorylated at an early stage
- state of the anterior ocular section after transplantation (pictures) ([4]; Y-27632 100 μM with 5.0×10^5 cells in 200 μl DMEM): excellent
- concentration at which efficacy is exhibited ([4]; animal models with bullous keratopathy): 10 to 100 µM

SMILES: CC(=O)C(C)=NO [BDM, 2,3-butanedione monoxime]
- action on skeletal muscle myosin II [5]: has action on skeletal muscle myosin II
- inhibiting effect on non-muscle myosin II (non-muscle myosin II): does not have an inhibiting effect
- effect on actin polymerization (actin polymerization): inhibiting actin polymerization

SMILES: Cc1ccc2c(c1)C(=O)[C@]1(O)CCN(c3ccccc3)C1=N2 [blebbistatin, (S)-(−)-Blebbistatin]
- number of adhering cells ([1]; blebbistatin 100 μM, three hours from seeding, in comparison to the control (DMEM)): significantly increased
- MLC phosphorylation activity ([2]; addition of blebbistatin, stated in the discussion): suppression of the MLC phosphorylation activity
- phosphorylation of paxillin (paxillin phosphorylation; blebbistatin 100 μM, 0, 1, 3 and 24 hours): phosphorylated at an early stage
- concentration needed for therapy compared with Y-27632 ([4]; blebbistatin 1 μM, 3 μM, 10 μM versus Y-27632 100 μM): therapy was possible at a lower concentration relative to Y-27632
- state of the anterior ocular section after transplantation (pictures) ([4]; blebbistatin 10 μM with 5.0×10^5 cells in 200 μl DMEM): excellent as with Y-27632
- effect as myosin II-specific inhibitor (type II myosin): has an effect
